Data set [1] has as its system breast cancer cell line MDA-MB-231. Description: Cell viability of MDA-MB-231 after transfection. Format: cell-based. Conditions: Example 8-1. The protocol: (§1) The miRNA triggers were assayed for cytotoxicity and apoptosis induction, using the CCK-8 (Cell Counting Kit-8) (Dojindo, Kumamoto, Japan) according to the manufacturer's instruction. Cells were incubated in 96-well plates (5×10^3 cells/well) at 37° C. for 24 hours under a 5% CO2 atmosphere, followed by transfection. Three days after transfection, the medium was removed. A 10-fold dilution of CCK-8 solution in DMEM was added to the cells which were then incubated at 37° C. for 2 hours. After incubation, absorbance was read at 450 nm on Tecan Infinite M200 pro microplate reader (Mnnedorf, Switzerland).
The seven linear miRNA triggers prepared above and the positive control siRNA(siBcl-xL) capable of binding to bcL-xL were transfected into the breast cancer cell line MDA-MB-231 in which miR-222 is overexpressed. Cell viability was measured and is depicted in FIG. 32a.
Linear miRNA triggers that could bind to miR-222 and target bcl-xL and mcl-1, respectively, were prepared and transfected alone or in combination into the breast cancer cell line MDA-MB-231. Cell viability was measured and the measurements are depicted in FIG. 34. siRNAs against Mcl-1 and Bcl-xL were used as controls. Sequences are listed in Table 23 for the linear miRNA trigger prepared above, in Tables 22 and 9 for the controls Luc-Luc-Luc and luc-222-222, respectively, and in Table 13 for the siRNAs. Every nucleotide of the triggers and the controls was chemically modified with 2′-OMe.
Linear miRNA triggers that could bind to miR-141 or let7f and target Bcl-xL or Mcl-1 were prepared and transfected alone or in combination into the breast cancer cell line MDA-MB-231 which was then measured for cell viability. […]
The hairpin miRNA triggers prepared above were transfected into MDA-MB-231 and MDA-MB-453 cells which were then measured for cell viability. […]
Hairpin miRNA triggers which could bind to miR-222 or let-7f and target mcl-1 or bcl-xL were prepared and transfected into the breast cancer cell line MDA-MB-231 which was then measured for cell viability. […]

Data set [2] deals with breast cancer cell line MDA-MB-453. Briefly: Cell viability of MDA-MB-453 after transfection. Format: cell-based. Conditions: miR-222 not endogenous. On the procedure:
as §1
(§2) The selected linear miRNA triggers (bcl-xL(1)_222_222 and bcl-xL(2)_222_222) were transfected into the breast cancer cell line MDA-MB-453 to which miR-222 is not endogenous. Cell viability, and the mRNA and protein expression levels of the target gene (bcl-xL) were measured and the results are depicted in FIGS. 33a to 33c.

Data set [3] has as its system bcl-xL mRNA. Briefly: bcl-xL mRNA expression in MDA-MB-453 cells. It counts as cell-based. The protocol:
In the same manner as in Reference Example 4, miRNA triggers were transfected into cells. After 48 hours, total RNA was extracted using TRIzol (Thermo Fisher Scientific) according to the manufacturer's instruction. The purified RNA was treated with DNase I and then reverse transcribed in the presence of RevertAid reverse transcriptase (Thermo Fisher Scientific), with random hexamers (Thermo Fisher Scientific) serving as primers. For use in amplification of target genes, primers for target genes were added, together with the cDNA, to the SYBR Green PCR master mix (Thermo Fisher Scientific). RT-qPCR was conducted on a StepOnePlus real-time PCR system. Cq values obtained from this analysis was quantitatively analyzed based on the 2^−ΔΔC(t) method.
as §2

Data set [4] relates to Bcl-xL. Briefly: bcl-xL protein expression in MDA-MB-453 cells. Format: cell-based. On the procedure: miRNA triggers were transfected into cells in the same manner as in Reference Example 4. After 72 hours, the cells were collected using a cell scraper and lysed with a RIPA buffer (NaCl 150 mM, EDTA 5 mM, Tris 50 mM, NP-40 1.0%, sodium deoxycholate 0.5%, SDS 0.1%). The cell lysate was sonicated 15 times, each for 20 sec, with a halt for 30 sec every sonication. Following centrifugation at 5,000 g for 5 min, the supernatant was taken and used to extract proteins therefrom. A total of 30-40 μg of protein sample was separated in 10-15% SDS-PAGE gel and transferred onto a PVDF membrane through a semi-dry blotting system. The membrane was blocked for 1 hour in 5% skimmed milk and incubated for 2 hours with a 1,000-fold dilution of a primary antibody in, 1% skimmed milk. […] The membrane incubated with the secondary antibody was washed three times with 1×PBST for 10 min each wash, and then reacted with Clarity Western ECL Substrate (#1705061, Bio-Rad), after which images were obtained and analyzed using ChemiDoc (Bio-rad, Hercules, USA).
as §2

The test system of data set [5] is GFP mRNA. Briefly: GFP fluorescence intensity in GFP-expressing Hela-141 cells. Conditions: trigger 30 to 60 nM, siGFP compared to siLuc. Format: cell-based. An excerpt:
A GFP fluorescent protein-expressing plasmid (used in Chen L L, DeCerbo J N, Carmichael G G. 2008. Alu element-mediated gene silencing. EMBO J 27: 1694-1705) was transfected into Hela-141 cells to prepare GFP-expressing Hela-141 cells. As stated in Reference Example 1, a linear miRNA trigger (LP; GFP_141_141), which can target GFP mRNA (=complementarily bind to GFP mRNA to regulate the expression of GFP) and complementarily bind to miR-141, and siRNAs which target GFP and Luc (Luciferase), respectively, were synthesized in Bioneer Inc. Sequences of the LP and siRNAs and types and positions of chemical modifications in each sequence are listed in Table 8, below.
Above all, siLuc and siGFP were transfected into the GFP-expressing Hela-141 cells which were then measured for fluorescence intensity on an ELISA reader. […] In addition, the linear miRNA trigger (GFP(1)_141_141) was transfected into the GFP-expressing Hela-141 cells which were then measured for fluorescence intensity. The result is depicted in FIG. 8. For the transfection, the GFP plasmid and GFP_141_141 were used at a concentration of 0.5 to 1 μg/ml and 30 to 60 nM, respectively.

The subject of data set [6] is cells. Briefly: Cytotoxicity assay of chemically modified miRNA triggers (CCK-8). Conditions: after transfection. It counts as cell-based. The protocol:
as §1
In addition, FPS HP and 2′-OMe HP, which were the most resistant to degradation in biological samples, were analyzed for cytotoxicity. In this regard, the HP in which the entire nucleotides of miRNA trigger (LP) were modified with PS (expressed as PS in Table 6 and FIG. 6), the linear probe in which the entire nucleotides of miRNA trigger (LP) were modified with 2′-O-Me (expressed as 2′O-me in Table 6 and FIG. 6), the control DNA LP (expressed as DNA in Table 6 and FIG. 6), or siRNA was transfected into cells which were then measured for cell viability using the method of Reference Example 9. The result is depicted in FIG. 6. […]

For data set [7], the system named is miRNA-141 and PKR mRNA (2). Description: PAGE assay of dumbbell miRNA trigger binding to miRNA and target mRNA. Conditions: 100 nM each, 37° C., 1 hour. The protocol:
To a buffer (1×PBS buffer, +5 mM MgCl2, 137 mM NaCl, 10 mM PO4, 2.7 mM KCl, 5 mM MgCl2; pH 7.4) containing 100 nM of the dumbbell miRNA trigger (DP) prepared above, 100 nM miRNA and/or 100 nM target mRNA was added, followed by incubation at 37° C. for 1 hour. Each sample was loaded to a PAGE gel and run. The results are depicted in FIG. 39b.

In the oligonucleotide strings, read from the 5' end, every base follows the letter of its sugar. An asterisk marks phosphorothioate; unmarked linkages are phosphodiester. Other units and linkages are bracketed, terminal groups are in braces. A string of capitals states the bases alone. d = 2'-deoxy (DNA)

Regarding “bcl-xL(2)_222_222: linear miRNA trigger binding miR-222 and knocking down bcl-xL; SEQ ID NO 107 (ACCCAGUAGCCAGAUGUAGCUACCCAGUAGCCAGAUGUAGCUUACCUGCCAGCCUCCUU; all 2'-O-methyl, backbone not given here)”, the “killing of breast cancer cells (cell viability)” value in data set [1] is “effectively kill breast cancer cells”. Besides, the cell viability entry in data set [2] is recorded as “did not significantly change”. The “mRNA expression level of target bcl-xL” value in data set [3] is recorded as “did not significantly change”. In data set [4], the “protein expression level of target bcl-xL” value was “did not significantly change”.
Regarding “siGFP: siRNA which targets GFP; SEQ ID NO 44 (UUAUGUUUCAGGUUCAGGG; unmodified RNA) [reference compound]”, the GFP fluorescence intensity result in data set [5] is reported as “significantly reduced fluorescence intensity”.
In the case of “PS: miRNA trigger of random sequence with entire nucleotides PS-modified, Table 6; SEQ ID NO 37 (dT*dC*dG*dA*dA*dG*dT*dA*dC*dT*dC*dA*dG*dC*dG*dT*dA*dA*dG*dT*dT*dC*dG*dA*dA*dG*dT*dA*dC*dT*dC*dA*dG*dC*dG*dT*dA*dA*dG*dT*dT*dC*dG*dA*dA*dG*dT*dA*dC*dT*dC*dA*dG*dC*dG*dT*dA*dA*dG*dT)”, in data set [6], the cell viability result was “less than 40%”.
For “2′-O-Me: linear probe with entire nucleotides modified with 2′-O-Me, Table 6; SEQ ID NO 38 (UCGAAGUACUCAGCGUAAGUUCGAAGUACUCAGCGUAAGUUCGAAGUACUCAGCGUAAGU; all 2'-O-methyl, backbone not given here)”, the “cell viability versus non-transfected negative control (in words)” value in data set [6] was “not significantly different in viability from the negative control”.

B1: GFP(1)_141_141: linear miRNA trigger targeting GFP mRNA and binding miR-141; SEQ ID NO 41 (nucleic acid)
chain: CCAUCUUUACCUCACAGUGUUACCAUCUUUACCUCACAGUGUUAUUAUGUUUCAGGUUCAGGGGGA
modifications: all 2'-O-methyl, backbone not given here
As to B1, in data set [5], the GFP fluorescence intensity result is listed as “reduced GFP fluorescence intensity in a dose-dependent manner”.

B2: bcl-xL(1)_222_222: linear miRNA trigger binding miR-222 and knocking down bcl-xL; SEQ ID NO 106 (nucleic acid)
chain: ACCCAGUAGCCAGAUGUAGCUACCCAGUAGCCAGAUGUAGCUUCUCCUUCCUGCCCUUCCU
modifications: all 2'-O-methyl, backbone not given here
In the case of B2, in data set [1], the “killing of breast cancer cells (cell viability)” value is recorded as “effectively kill breast cancer cells”. The cell viability entry in data set [2] is “did not significantly change”. Besides, the “mRNA expression level of target bcl-xL” value in data set [3] was “did not significantly change”. Besides, the “protein expression level of target bcl-xL” value in data set [4] is “did not significantly change”.

B3: DB_PKRS20_141: dumbbell-shaped miRNA trigger, 20-nt mRNA-binding portion, binds miRNA-141 and PKR mRNA; SEQ ID NO 130 (nucleic acid)
chain: CCCCCCGAATGAGAAATACCATCTTTACCAGACAGTGTTATATTTCTCATTCCCTTCCTTNNAAGGAAGGGGGGGG
modifications: listed as DNA, chemistry not given here
As to B3, the “binding to target mRNA in the absence of the miRNA” value in data set [7] (lane 3) is on record as “did not bind to a target mRNA”. For the same molecule, the “binding to miRNA and/or target mRNA in the presence of the miRNA” value in data set [7] (lanes 2 and 4) is “could bind to a miRNA and/or target mRNA only in the presence of the miRNA”.

The values above are taken from patent publication US20230129651A1, “HAIRPIN STRUCTURE NUCLEIC ACID MOLECULES CAPABLE OF MODULATING TARGET GENE EXPRESSION AND USES THEREOF” (KOREA ADVANCED INSTITUTE OF SCIENCE AND TECHNOLOGY, priority 2021, published 2023).
